Measurements taken from patent US12509734B2, “Systems and methods to assess microbiomes and treatments thereof” (priority 2013, dated 2025).

Test system: vaginal microbiota
Test: 16S-C&S (broad-spectrum clone and sequence) with and without LB-blocking of acute BV and post-tinidazole lavages (Tables 3C, 3D)
Type: in vivo, human
From the text: Amplicon cloning. Amplicon cloning. Broad-spectrum PCR targets were amplified for varying cycle numbers, typically Cp plus 1 or 2 cycles to achieve a “just visible” product on an agarose ethidium-bromide gel. Amplicons derived from PB primers were sequenced directly with the rationale that any species present at 5-10× others amplified by the same PB primer would generate a single, readable sequence; amplicons from PB primers that were unreadable as uncloned amplicons were cloned after nested PCR. They were amplified to maximum fluorescence or maximum cycles for that primer. Products were cleaned by ultrafiltration with the MONTAGE™ PCR kit UFC7PCR50 (Millipore) or QIAQUICK® PCR purification kit (QIAGEN®). One to three microliters of the 20 μl purified product was ligated into pGEM-T Easy vector using the PGEM-T™ Easy Ligation Kit (Promega) according to the manufacturer's specifications. The ligation reaction was carried out for from 4 hours to overnight at 4° C. Forty microliters of E. coli cells (strain XL1-BLUE®, Stratagene) were electroporated using a BioRad GenePulser and Pulse Controller (set at 2.5 kV, 25 μFD capacitance, and 200 ohms resistance) with 1 μl of the ligation, allowed to recover in LB broth 1 h at 37° C., then plated onto LB agar plus 100 μg/ml ampicillin with 0.1 mM IPTG and 20 μg/ml X-gal and grown overnight at 37° C. White colonies and a few blue control colonies were picked from the plates into 100 μl of 15% glycerol or TE, incubated at 94° C. for 5 m; 2 μl of this was amplified in 8 μl of reaction buffer as described, using primers that flank the cloning site in the vector (pUC-F […] (SEQ ID NO: 88), pUC-R […] (SEQ ID NO: 89); 95° C. (1 m), [95° C. (30 s), 45° C. (30 s), 72° C. (30 s)] for 40 cycles, 72° C. (5 m). Extension times for cloned amplicons from PB primers were adjusted as appropriate for each amplicon size according to Tables 3A-3D. An aliquot of each amplicon was tested by agarose gel electrophoresis.
Sequencing and analysis. Full length amplicons (5 μl) were enzymatically cleaned using a 5 μl solution of 0.1 units of NTPhos thermolabile phosphatase and 1 unit of Exonuclease I (Epicentre Biotechnologies), in 20 mM Tris pH 8.3, 50 mM KCl and 10 mM MgCl2 (1×PCR reaction buffer, Invitrogen), incubated at 37° C. for 15 m, then inactivated at 80° C. for 15 m, and used for sequencing. Mini-libraries were constructed from amplicons with co-dominant species (which generate mixed template reads when uncloned); 17 mini-libraries each averaging 11 sequences were sequenced. Enzymatically cleaned amplicons were sequenced with the same primers used for amplification, or T7 for cloned amplicons (Functional Biosciences, Inc.). Sequences were uploaded to Ribosomal Database Project II using the Pipeline function in MyRDP for trimming, quality scoring, alignment, and identification. Only base calls with PHRED quality scores (Q) above 20 were considered. A small number of high quality sequences were rejected by the website as non-ribosomal and were not considered further in this analysis. Aligned sequences, their closest hits via SeqMatch, and manually selected reference species, were downloaded from myRDP, manually trimmed to common 5′ and 3′ ends, and analyzed with Molecular Evolutionary Genetics Analysis (MEGA4 and MEGA5) software. From this, trees were constructed using the bootstrapped Neighbor-Joining method or the Maximum Composite Likelihood method, and used for species identification.
Compositions determined by 16S-C&S were simply tallies of sequences in each taxa, defined here as those with >97% identity. These tallies were adjusted in libraries from LB-blocked PCR with a correction factor. To determine this factor, the titers of Gardnerella and LB were independently determined with and without blocking by PB-qPCR. Their ratio in the unblocked sample (7×10^−6) was increased in the blocked sample to 0.09, indicating an enrichment of 0.09/7×10^−6=12,600. […]

[1] = post tinidazole lavage, 16S-C&S, Lactobacillaceae clones
[2] = post tinidazole lavage, 16S-C&S, target Bacteroidaceae/uc Prevotellaceae

In the case of CCS(=O)(=O)CCn1c([N+](=O)[O-])cnc1C [tinidazole], the “non-LB share of isolates in post-tinidazole sample” value (FIG. 3, B2, LB-blocked) is reported as 0.003%, the “ID Clones: L. iners” value [1] is reported as “L. iners 83%, L” and the “ID Clones: L. jensenii” value [1] is reported as “jensenii 17%,”. For the same molecule, the Cells/sample (post tinidazole lavage, 16S-C&S, target Actinobacteria: Actinobacteridae) was 1.3E+06 Cells/sample, the Cells/sample (post tinidazole lavage, 16S-C&S, target Alpha-Proteobacteria) was 3.4E+04 Cells/sample and the Cells/sample [2] was 3.4E+04 Cells/sample. For the same molecule, the “ID Clones” value [2] was “Bacteroides sp”, the Cells/sample (post tinidazole lavage, 16S-C&S, target Beta-Proteobacteria) was 3.4E+04 Cells/sample and the Cells/sample (post tinidazole lavage, 16S-C&S, target Broad-spectrum) was 8.4E+09 Cells/sample. It also gave a Cells/sample (post tinidazole lavage, 16S-C&S, target Clostridiales Incertae Sedis XI) of 0 Cells/sample, a Cells/sample (post tinidazole lavage, 16S-C&S, target Clostridiales Incertae Sedis XII) of 0 Cells/sample and a Cells/sample (post tinidazole lavage, 16S-C&S, target Coriobacteridae) of 0 Cells/sample. For the same molecule, the Cells/sample (post tinidazole lavage, 16S-C&S, target Cross-family Clostridia) was 0 Cells/sample, the Cells/sample (post tinidazole lavage, 16S-C&S, target Enterobacteriales, Pasteurellales, Pseudomonadaceae) was 3.4E+05 Cells/sample and the Cells/sample (post tinidazole lavage, 16S-C&S, target Epsilon-Proteobacteria) was 3.4E+04 Cells/sample. For the same molecule, the Cells/sample (post tinidazole lavage, 16S-C&S, target Firmicute: Lactobacillaceae) was 8.4E+09 Cells/sample, the Cells/sample (post tinidazole lavage, 16S-C&S, target Fusobacterium) was 0 Cells/sample and the Cells/sample (post tinidazole lavage, 16S-C&S, target Lachnospiracea uc & incertae sedis Clostridium IVa) was 0 Cells/sample. For the same molecule, the Cells/sample (post tinidazole lavage, 16S-C&S, target Megasphaera/Dialister/Veillonella) was 0 Cells/sample, the Cells/sample (post tinidazole lavage, 16S-C&S, target Mobiluncus) was 0 Cells/sample and the Cells/sample (post tinidazole lavage, 16S-C&S, target Mycoplasmatales) was 0 Cells/sample. For the same molecule, the Cells/sample (post tinidazole lavage, 16S-C&S, target Peptostreptococcaceae) was 0 Cells/sample, the Cells/sample (post tinidazole lavage, 16S-C&S, target Staphylococcus) was 0 Cells/sample and the Cells/sample (post tinidazole lavage, 16S-C&S, target Streptococcus) was 0 Cells/sample. For the same molecule, the Cells/sample (post tinidazole lavage, 16S-C&S, target uc Clostridiales (BVAB283 subset)) was 0 Cells/sample.
